{
  "source": "patent US10854312B2",
  "about": "“Selective peptide antagonists” (BIONIZ, LLC, priority 2013, dated 2020)",
  "type_in_all_cases": "cell-based",
  "key": {"[1]": {"system": "IL-2/IL-15-induced proliferation of ex vivo human T-lymphocytes", "method": "FIG. 7A, and FIG. 7B present effective inhibition of a combined function of target γc-cytokines by BNZ132-1. […] Human Peripheral T cells were prepared as described in the methodology section. Four hundred thousand cells (in 200 μl culture) were incubated with the cytokines and BNZ132-1 at the indicated concentrations for 24 h, and cellular proliferation was determined by the […] using the WST-1 reagent (Clontech). The Y-axis represents the OD450 values. The p values; 1 nM cytokine combination—No inhibition vs. anti-IL-2; 0.33, No inhibition vs. anti-IL-15; 0.13, No inhibition vs. anti IL-2+IL-15; 0.003. No inhibition vs. BNZ132-1; 0.021. 0.1 nM cytokine combination—No inhibition vs. anti-IL-2; 0.046, No inhibition vs. anti-IL-15; 0.057, No inhibition vs. anti IL-2+IL-15; 0.001, No inhibition vs. anti IL-2+15; 0.001, No inhibition vs.BNZ132-1; 0.001. The assay was performed in triplicate. […] Peripheral blood mononuclear cells were purified from the blood of a HAM-TSP patient and set up for a spontaneous proliferation assay as previously described36. The cellular proliferation was measured by the thymidine incorporation assay. The Y-axis represents the cpm values. Doses are on the X-axis; BNZ132-1, 3 and 0.3 μM. […] After 12 h incubation, OD450 was measured. […] Absorbance at 450 nm was read at 6 h after the addition of the WST-1 dye. […]"}, "mouse GM-CSF": {"target": "mouse GM-CSF (Mus musculus, UniProt P01587)", "sequence (P01587 18-141)": "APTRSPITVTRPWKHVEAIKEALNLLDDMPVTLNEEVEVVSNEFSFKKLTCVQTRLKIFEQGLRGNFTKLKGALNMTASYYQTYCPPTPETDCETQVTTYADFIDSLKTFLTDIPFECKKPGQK", "assay": "PT-18β proliferation assay (3H-thymidine), non-γc cytokine GM-CSF", "settings": "1 nM mouse GM-CSF, 15 μM BNZ132-1"}, "human Flt-3 ligand": {"target": "human Flt-3 ligand (Homo sapiens, UniProt P49771)", "sequence (P49771 27-235)": "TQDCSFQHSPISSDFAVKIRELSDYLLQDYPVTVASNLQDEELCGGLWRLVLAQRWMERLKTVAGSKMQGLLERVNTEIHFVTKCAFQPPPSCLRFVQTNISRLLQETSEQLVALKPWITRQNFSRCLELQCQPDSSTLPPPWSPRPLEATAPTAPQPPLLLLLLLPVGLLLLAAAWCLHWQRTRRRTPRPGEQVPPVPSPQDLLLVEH", "assay": "PT-18β proliferation assay (3H-thymidine), non-γc cytokine Flt-3 ligand", "settings": "1 nM human Flt-3 ligand, 15 μM BNZ132-1"}},
  "note": "“Also recorded” adds a separate entry of the source. No end group written: not given here.",
  "data": [
    {"sequence": "IKEFLQRFIHIVQSIINTS [BNZ132-1]", "values": [
      {"measurement": "IC50", "setting": "[1]", "result": 150, "unit": "nM"},
      {"measurement": "inhibition of GM-CSF-induced proliferation of PT-18β cells", "setting": "mouse GM-CSF", "result": "did not inhibit; also recorded: no inhibition; also recorded: no inhibition of non-γc cytokines"},
      {"measurement": "inhibition of Flt3-L-induced proliferation of PT-18β cells", "setting": "human Flt-3 ligand", "result": "did not inhibit; also recorded: no inhibition; also recorded: no inhibition of non-γc cytokines"}
    ]}
  ]
}
